Source: patent US8987459B2, “Compounds for the treatment of conditions associated with DGAT1 activity” (Novartis AG, priority 2013, dated 2015)
≈ marks a conversion by molar mass, not a printed value. Where a name gives a salt, the structure may show the parent alone. Read-outs that look alike come from different tables or passages of the source. Marks after values point to notes of the source that are not given here.

Columns and labels:
[1] = Oral exposure and bioavailability in dog; assay type: in vivo
Procedure: (§1) With a meglumine salt suspension at 100 mg/kg, about 33% decrease in plasma exposure was observed compared to solid dispersion. […] The solid dispersion formulation has several technical challenges which can be avoided by using a 2-((1R,4R)-4-(4-(5-(benzo[d]oxazol-2-ylamino)pyridin-2-yl)phenyl)cyclohexyl)acetic acid meglumine Form A suspension-based formulation.

[2] = Oral exposure and bioavailability in rat; assay type: in vivo; settings: for dose linearity: suspension
Procedure: (§2) Direct in vivo comparison of 2-((1R,4R)-4-(4-(5-(benzo[d]oxazol-2-ylamino)pyridin-2-yl)phenyl)cyclohexyl)acetic acid meglumine and 2-((1R,4R)-4-(4-(5-(benzo[d]oxazol-2-ylamino)pyridin-2-yl)phenyl)cyclohexyl)acetic acid sodium salt suspensions were performed in rat and mouse. […] From this preclinical data, it was confirmed that 2-((1R,4R)-4-(4-(5-(benzo[d]oxazol-2-ylamino)pyridin-2-yl)phenyl)cyclohexyl)acetic acid meglumine is a better performing salt.

[3] = Oral bioavailability in mouse; assay type: in vivo; settings: suspension at 30 mg/kg
Procedure: as §2

[4] = Aqueous kinetic solubility, physical blend with polymers and/or surfactants; assay type: physicochemical; settings: simple physical blend with polymers and/or surfactants
Procedure: (§3) A standard capsule formulation with 2-((1R,4R)-4-(4-(5-(benzo[d]oxazol-2-ylamino)pyridin-2-yl)phenyl)cyclohexyl)acetic acid meglumine is the recommended CSF strategy to support the projected efficacious dose range in human (11-120 mg) based on following observations: • Low efficacious dose of 2-((1R,4R)-4-(4-(5-(benzo[d]oxazol-2-ylamino)pyridin-2-yl)phenyl)cyclohexyl)acetic acid in preclinical species (0.1-0.3 mg/kg) • High exposure multiples in preclinical species (rat and dog) from a suspension formulation of 2-((1R,4R)-4-(4-(5-(benzo[d]oxazol-2-ylamino)pyridin-2-yl)phenyl)cyclohexyl)acetic acid meglumine • Aqueous kinetic solubility of 2-((1R,4R)-4-(4-(5-(benzo[d]oxazol-2-ylamino)pyridin-2-yl)phenyl)cyclohexyl)acetic acid meglumine can be further improved (20-60 fold) from simple physical blend with polymers and/or surfactants • Improvement in exposure and dose linearity from 2-((1R,4R)-4-(4-(5-(benzo[d]oxazol-2-ylamino)pyridin-2-yl)phenyl)cyclohexyl)acetic acid meglumine over the sodium salt

[5] = Hygroscopicity (relative humidity); assay type: physicochemical; settings: for Change in crystallinity (PXRD): listed under hygroscopicity
Efficacious AUC in dog = assay type: in vivo; settings: plasma, 0.3 mg/kg, at 0.3 mpk
Procedure: as §1

[6] = Intrinsic dissolution rate; assay type: physicochemical
[7] = Efficacious dose in preclinical species; assay type: in vivo
Procedure: as §3

[8] = Solubility in buffers, biorelevant media and water
[9] = background statement, no medium given

SMILES	dose linearity ([2]; 30 and 100 mg/kg)	Hygroscopicity [%] 0-40% r.h. [5] [%]	Hygroscopicity [%] 0-95% r.h. [5] [%]	Change in crystallinity (PXRD) [5]	Intrinsic Dissolution Rate ([6]; pH 4.5 (50 mM Acetate))	Intrinsic Dissolution Rate ([6]; pH 6.8 (50 mM Phosphate))	pH final of solubility sample ([8]; FaSSIF V2)	Solubility ([8]; FeSSIF V2) [µg/mL]	pH final of solubility sample ([8]; FeSSIF V2)	pH final of solubility sample ([8]; SGF pH 2.0)	Solubility ([8]; Water) [µg/mL]	pH final of solubility sample ([8]; Water)	Solubility ([8]; pH 1 (0.1N HCl)) [µg/mL]	pH final of solubility sample ([8]; pH 1 (0.1N HCl))	pH final of solubility sample ([8]; pH 4.8 (50 mM Acetate))	Solubility ([8]; pH 6.5 (50 mM Phosphate)) [µg/mL]	pH final of solubility sample ([8]; pH 6.5 (50 mM Phosphate))	Solubility ([8]; FaSSIF V2) [µg/mL]	Solubility ([8]; SGF pH 2.0) [µg/mL]	Solubility ([8]; pH 4.8 (50 mM Acetate)) [µg/mL]	also measured
O=C(O)C[C@H]1CC[C@H](c2ccc(-c3ccc(Nc4nc5ccccc5o4)cn3)cc2)CC1 [meglumine salt, meglumine salt of 2-((1R,4R)-4-(4-(5-(benzo[d]oxazol-2-ylamino)pyridin-2-yl)phenyl)cyclohexyl)acetic acid]	dose linear																				bioavailability ([1]; plasma, po, 30 mg/kg solution dose (sodium material dissolved in 10% HPβCD in purified water or PBS), read-out: Absolute oral bioavailability): 1.5%; decrease in plasma exposure compared to solid dispersion ([1]; suspension at 100 mg/kg): about 33%; exposure over the efficacious AUC ([1]; suspension at 100 mg/kg): ~150 ×; dose linearity ([2]; 300 mpk): non-linear; bioavailability ([2]; in vivo, oral, 300 mg/kg, suspension at 300 mpk, read-out: bioavailability): 1.9%; bioavailability ([2]; in vivo, oral, suspension at 30 mg/kg, read-out: bioavailability): 3.1%; bioavailability ([2]; in vivo, oral, suspension at 100 mg/kg, read-out: bioavailability): 3.8%; bioavailability ([3]; in vivo, oral, read-out: bioavailability): 17.3%; improvement of aqueous kinetic solubility [4]: 20-60 fold
O=C(O)C[C@H]1CC[C@H](c2ccc(-c3ccc(Nc4nc5ccccc5o4)cn3)cc2)CC1 [Free acid, 2-((1R,4R)-4-(4-(5-(benzo[d]oxazol-2-ylamino)pyridin-2-yl)phenyl)cyclohexyl)acetic acid]		0.136	0.251	No	0.013 mg min^−1 cm^−2	BLQ	(6.34)	60 (≈ 140 µM)	(5.53)	(2.38)	10 (≈ 23.4 µM)	(7.63)	<0.5	(1.59)	(4.76)	<0.5	(6.87)				AUC (Efficacious AUC in dog): 0.132 µM·h; intrinsic dissolution (in words) [6, 9]: low; efficacious dose in preclinical species [7]: 0.1 to 0.3 mg/kg; Solubility ([8]; 50 mM acetate buffer, pH 4.8, aqueous buffer, Solubility [mg/ml], pH 4.8 (50 mM Acetate)): < 0.5 µg/mL; Solubility ([8]; FaSSIF V2, fassif, Solubility [mg/ml], FaSSIF V2): 20 µg/mL (≈ 46.8 µM); Solubility ([8]; SGF, pH 2, simulated gastric fluid, Solubility [mg/ml], SGF pH 2.0): < 0.5 µg/mL; solubility (in words) [8, 9]: low
O=C([O-])C[C@H]1CC[C@H](c2ccc(-c3ccc(Nc4nc5ccccc5o4)cn3)cc2)CC1.[K+] [Potassium, 2-((1R,4R)-4-(4-(5-(benzo[d]oxazol-2-ylamino)pyridin-2-yl)phenyl)cyclohexyl) acetate Potassium salt]		4.52	21.77	No			(8.32)			(3.73)	1050	(10.3)	50	(3.89)	(4.90)	<0.5	(7.29)	95	3	<0.5	
O=C(O)C[C@H]1CC[C@H](c2ccc(-c3ccc(Nc4nc5ccccc5o4)cn3)cc2)CC1 [Meglumine Form A, Meglumine salt of 2-((1R,4R)-4-(4-(5-(benzo[d]oxazol-2-ylamino)pyridin-2-yl)phenyl)cyclohexyl)acetic acid]		0.162	0.588	No	BLQ	BLQ	(6.86)	1	(6.26)	(2.37)	70	(10.4)	150	(2.79)	(4.88)	40	(7.27)	10	<0.5	<0.5	
C[N+](C)(C)CCO.O=C(O)C[C@H]1CC[C@H](c2ccc(-c3ccc(Nc4nc5ccccc5o4)cn3)cc2)CC1.O=C([O-])C[C@H]1CC[C@H](c2ccc(-c3ccc(Nc4nc5ccccc5o4)cn3)cc2)CC1 [Hemi-choline, 2-((1R,4R)-4-(4-(5-(benzo[d]oxazol-2-ylamino)pyridin-2-yl)phenyl)cyclohexyl) acetate Hemi-choline salt]		1.44	15.95	No	BLQ																Solubility (pH 1): 140 µg/mL; pH final of solubility sample (pH 1): (1.06); Solubility (pH 2): 95 µg/mL; pH final of solubility sample (pH 2): (1.05); Solubility (pH 4.8): 15 µg/mL; pH final of solubility sample (pH 4.8): (4.76); Solubility (pH 6.5): 30 µg/mL; pH final of solubility sample (pH 6.5): (7.15)
O=C([O-])C[C@H]1CC[C@H](c2ccc(-c3ccc(Nc4nc5ccccc5o4)cn3)cc2)CC1.[Na+] [Sodium, 2-((1R,4R)-4-(4-(5-(benzo[d]oxazol-2-ylamino)pyridin-2-yl)phenyl)cyclohexyl) acetate sodium salt]	not dose linear	13.1	16.2	No			(7.47)	3	(5.66)	(9.13)	23	(9.3)	<0.5	(1.03)	(5.08)	0.6	(8.5)	7		<0.5	bioavailability ([2]; suspension at 30 mg/kg): 7.6%; bioavailability ([2]; suspension at 100 mg/kg): 4.6%; bioavailability [3]: 9.6%; Solubility [mg/ml] ([8]; SGF pH 2.0): 0.062* mg/ml
